Experimental data: patent US8642647B2, “N1-benzo[1,3]dioxol-5-ylmethyl-N2-substituted biguanide derivative, preparation method thereof, and pharmaceutical composition containing same” (Hanall Biopharma Co., Ltd., priority 2008, dated 2014)

test system: HepG2 cells; assay: Measurement of gluconeogenesis inhibitory ability; type: cell-based; conditions: Homo sapiens, HepG2, 24 h, 100 μM compound, 24 hours, HepG2 cells; content of glucose formed from 14C-lactate; lower value = stronger inhibition; read-out: Gluconeogenesis inhibition (100 μM) aver.
Method: (§1) 2 mM metformin was used as a comparative compound for each of the plates (control group).
HepG2 cells (ATCC: American Type Culture Collection) were cultured in 10% serum-containing high glucose media, transferred to no serum-containing low glucose media (DMEM (Gibco), FBS (Gibco)), and then treated with 100 μM of each of the compounds for 24 hours. Then, the cells were treated with 0.5 μCi ^14C-lactate (Amersham Pharmacia) and 10 mM L-lactate (Sigma), and cultured for 4 hours. After cultivation, the media were removed therefrom, and the cells were washed with PBS, treated with 0.1N NaOH and kept at room temperature for 1 hour. Then, the cells were neutralized with 1N HCl, and the content of glucose formed in the cells was measured with a liquid scintillation counter.
A lower measurement value means an increased gluconeogenesis inhibitory ability.

Point of comparison: `Cc1cccc(N=C(NCc2ccc3c(c2)OCO3)NC(=N)N)c1.Cl` [Example 42, N1-benzo[1,3]dioxol-5-ylmethyl-N2-(3-methylphenyl)biguanide hydrochloride], activity at 100 µM 56.1%. Against it:
- Cl.N=C(N)NC(=NCc1ccc(Br)cc1)NCc1ccc2c(c1)OCO2 [Example 36, N1-benzo[1,3]dioxol-5-ylmethyl-N2-(4-bromobenzyl)biguanide hydrochloride] — higher, 92.9%
- COc1ccc(CN=C(NCc2ccc3c(c2)OCO3)NC(=N)N)cc1.Cl [Example 37, N1-benzo[1,3]dioxol-5-ylmethyl-N2-(4-methoxybenzyl)biguanide hydrochloride] — higher, 104%
- Cl.N=C(N)NC(=NC1CC1)NCc1ccc2c(c1)OCO2 [Example 38, N1-benzo[1,3]dioxol-5-ylmethyl-N2-cyclopropyl biguanide hydrochloride] — higher, 78.9%
- CCCCN=C(NCc1ccc2c(c1)OCO2)NC(=N)N.Cl [Example 39, N1-benzo[1,3]dioxol-5-ylmethyl-N2-butyl biguanide hydrochloride] — higher, 87.3%
- CCCCCN=C(NCc1ccc2c(c1)OCO2)NC(=N)N.Cl [Example 40, N1-benzo[1,3]dioxol-5-ylmethyl-N2-pentyl biguanide hydrochloride] — higher, 84.6%
- Cl.N=C(N)NC(=Nc1cccc(Br)c1)NCc1ccc2c(c1)OCO2 [Example 41, N1-benzo[1,3]dioxol-5-ylmethyl-N2-(3-bromophenyl)biguanide hydrochloride] — lower, 0%
- Cl.N=C(N)NC(=NCc1ccc(F)cc1)NCc1ccc2c(c1)OCO2 [Example 43, N1-benzo[1,3]dioxol-5-ylmethyl-N2-(4-fluorobenzyl)biguanide hydrochloride] — higher, 83.5%
- Cl.N=C(N)NC(=NCc1ccc(F)c(F)c1)NCc1ccc2c(c1)OCO2 [Example 44, N1-benzo[1,3]dioxol-5-ylmethyl-N2-(3,4-difluorobenzyl)biguanide hydrochloride] — higher, 103%

test system: HepG2 cells; assay: Measurement of cholesterol synthesis inhibitory ability; type: cell-based; conditions: 100 μM compound, 24 hours, HepG2 cells; content of cholesterol formed; lower value = stronger inhibition
Method: as §1
A cholesterol synthesis inhibitory ability, which is an important function of AMPK (AMP-activated protein kinase), was measured using HepG2 cells (ATCC: American Type Culture Collection) as a hepatic cell model according to the following procedure.
The hepatic cell model HepG2 cells were cultured in 1% serum-containing media (DMEM (Gibco), FBS (Gibco)) for 24 hours, and then treated with 100 μM or 500 μM of each of the compounds prepared in Examples for 24 hours. Then, the cells were disrupted with a lysis solution (0.1 M potassium phosphate, pH 7.4, 0.05 M NaCl, 5 mM cholic acid, 0.1% Triton X-100 (Sigma)). To the disrupted cells was added the same volume of a reaction solution (2 U/ml of a cholesterol oxidizing agent, 2 U/ml of a peroxidase, 0.2 U/ml of a cholesterol esterase, and 300 μM of Amplex red as a fluorescent factor (Molecular Probe)), which was allowed to react at 37° C. for 30 minutes. After completion of the reaction, the content of cholesterol formed in the cell lysates was measured at a wavelength of 560/590 nm (ex/em) using a fluorescence microscope.
A lower measurement value means an increased cholesterol synthesis inhibitory ability.

Point of comparison: `Cc1cccc(N=C(NCc2ccc3c(c2)OCO3)NC(=N)N)c1.Cl` [Example 42, N1-benzo[1,3]dioxol-5-ylmethyl-N2-(3-methylphenyl)biguanide hydrochloride], “Cholesterol (100 μM) aver.” value 46.42. Against it:
- Cl.N=C(N)NC(=NCc1ccc(Br)cc1)NCc1ccc2c(c1)OCO2 [Example 36, N1-benzo[1,3]dioxol-5-ylmethyl-N2-(4-bromobenzyl)biguanide hydrochloride] — lower, 25.31
- COc1ccc(CN=C(NCc2ccc3c(c2)OCO3)NC(=N)N)cc1.Cl [Example 37, N1-benzo[1,3]dioxol-5-ylmethyl-N2-(4-methoxybenzyl)biguanide hydrochloride] — higher, 60.36
- Cl.N=C(N)NC(=NC1CC1)NCc1ccc2c(c1)OCO2 [Example 38, N1-benzo[1,3]dioxol-5-ylmethyl-N2-cyclopropyl biguanide hydrochloride] — higher, 57.32
- CCCCN=C(NCc1ccc2c(c1)OCO2)NC(=N)N.Cl [Example 39, N1-benzo[1,3]dioxol-5-ylmethyl-N2-butyl biguanide hydrochloride] — higher, 70.48
- CCCCCN=C(NCc1ccc2c(c1)OCO2)NC(=N)N.Cl [Example 40, N1-benzo[1,3]dioxol-5-ylmethyl-N2-pentyl biguanide hydrochloride] — higher, 57.36
- Cl.N=C(N)NC(=Nc1cccc(Br)c1)NCc1ccc2c(c1)OCO2 [Example 41, N1-benzo[1,3]dioxol-5-ylmethyl-N2-(3-bromophenyl)biguanide hydrochloride] — lower, 23.61
- Cl.N=C(N)NC(=NCc1ccc(F)cc1)NCc1ccc2c(c1)OCO2 [Example 43, N1-benzo[1,3]dioxol-5-ylmethyl-N2-(4-fluorobenzyl)biguanide hydrochloride] — higher, 73.10
- Cl.N=C(N)NC(=NCc1ccc(F)c(F)c1)NCc1ccc2c(c1)OCO2 [Example 44, N1-benzo[1,3]dioxol-5-ylmethyl-N2-(3,4-difluorobenzyl)biguanide hydrochloride] — higher, 74.32

same assay, conditions: 500 μM compound, 24 hours, HepG2 cells; content of cholesterol formed; lower value = stronger inhibition

Point of comparison: `Cl.N=C(N)NC(=NCc1ccc(F)cc1)NCc1ccc2c(c1)OCO2` [Example 43, N1-benzo[1,3]dioxol-5-ylmethyl-N2-(4-fluorobenzyl)biguanide hydrochloride], “Cholesterol (500 μM) aver.” value 47.65. Against it:
- Cl.N=C(N)NC(=NCc1ccc(Br)cc1)NCc1ccc2c(c1)OCO2 [Example 36, N1-benzo[1,3]dioxol-5-ylmethyl-N2-(4-bromobenzyl)biguanide hydrochloride] — lower, 40.17
- COc1ccc(CN=C(NCc2ccc3c(c2)OCO3)NC(=N)N)cc1.Cl [Example 37, N1-benzo[1,3]dioxol-5-ylmethyl-N2-(4-methoxybenzyl)biguanide hydrochloride] — lower, 32.20
- Cl.N=C(N)NC(=NC1CC1)NCc1ccc2c(c1)OCO2 [Example 38, N1-benzo[1,3]dioxol-5-ylmethyl-N2-cyclopropyl biguanide hydrochloride] — lower, 47.06
- CCCCN=C(NCc1ccc2c(c1)OCO2)NC(=N)N.Cl [Example 39, N1-benzo[1,3]dioxol-5-ylmethyl-N2-butyl biguanide hydrochloride] — higher, 49.52
- CCCCCN=C(NCc1ccc2c(c1)OCO2)NC(=N)N.Cl [Example 40, N1-benzo[1,3]dioxol-5-ylmethyl-N2-pentyl biguanide hydrochloride] — lower, 27.89
- Cl.N=C(N)NC(=Nc1cccc(Br)c1)NCc1ccc2c(c1)OCO2 [Example 41, N1-benzo[1,3]dioxol-5-ylmethyl-N2-(3-bromophenyl)biguanide hydrochloride] — lower, 32.23
- Cc1cccc(N=C(NCc2ccc3c(c2)OCO3)NC(=N)N)c1.Cl [Example 42, N1-benzo[1,3]dioxol-5-ylmethyl-N2-(3-methylphenyl)biguanide hydrochloride] — lower, 28.95
- Cl.N=C(N)NC(=NCc1ccc(F)c(F)c1)NCc1ccc2c(c1)OCO2 [Example 44, N1-benzo[1,3]dioxol-5-ylmethyl-N2-(3,4-difluorobenzyl)biguanide hydrochloride] — higher, 49.84

test system: HepG2 cells; assay: Measurement of triglyceride synthesis inhibitory ability; type: cell-based; conditions: 100 μM compound versus 2 mM metformin
Method: as §1
HepG2 cells (ATCC: American Type Culture Collection) were cultured in 1% serum-containing media (DMEM (Gibco), FBS (Gibco)) for 24 hours, and then treated with 100 μM or 500 μM of each of the compounds prepared in Examples for 24 hours. Then, the cells were disrupted with a lysis solution (0.1 M potassium phosphate, pH 7.4, 0.05 M NaCl, 5 mM cholic acid, 0.1% Triton X-100). To the disrupted cells was added the same volume of a reaction solution (0.76 U/ml of a glycerol kinase (Asan Pharmaceutical Co., Ltd.), […] of a peroxidase (Asan Pharmaceutical Co., Ltd.), 22.2 U/ml of a glycerol oxidizing agent (Asan Pharmaceutical Co., Ltd.), and 300 μM of Amplex red as a fluorescent factor (Molecular Probe)), which was allowed to react at 37° C. for 30 minutes. After completion of the reaction, the content of triglyceride formed in the cell lysates was measured at a wavelength of 560/590 nm (ex/em) using a fluorescence microscope.
A lower measurement value means an increased triglyceride synthesis inhibitory ability.

With `COc1ccc(CN=C(NCc2ccc3c(c2)OCO3)NC(=N)N)cc1.Cl` [Example 37, N1-benzo[1,3]dioxol-5-ylmethyl-N2-(4-methoxybenzyl)biguanide hydrochloride] the “effect in inhibiting triglyceride synthesis better than that of the control group” value was “at least 20 times”.

same assay, conditions: 100 μM compound, 24 hours, HepG2 cells; content of triglyceride formed; lower value = stronger inhibition

Point of comparison: `COc1ccc(CN=C(NCc2ccc3c(c2)OCO3)NC(=N)N)cc1.Cl` [Example 37, N1-benzo[1,3]dioxol-5-ylmethyl-N2-(4-methoxybenzyl)biguanide hydrochloride], “Triglyceride (100 μM) aver.” value 62.82. Against it:
- Cl.N=C(N)NC(=NCc1ccc(Br)cc1)NCc1ccc2c(c1)OCO2 [Example 36, N1-benzo[1,3]dioxol-5-ylmethyl-N2-(4-bromobenzyl)biguanide hydrochloride] — lower, 61.93
- Cl.N=C(N)NC(=NC1CC1)NCc1ccc2c(c1)OCO2 [Example 38, N1-benzo[1,3]dioxol-5-ylmethyl-N2-cyclopropyl biguanide hydrochloride] — higher, 95.00
- CCCCN=C(NCc1ccc2c(c1)OCO2)NC(=N)N.Cl [Example 39, N1-benzo[1,3]dioxol-5-ylmethyl-N2-butyl biguanide hydrochloride] — higher, 98.77
- CCCCCN=C(NCc1ccc2c(c1)OCO2)NC(=N)N.Cl [Example 40, N1-benzo[1,3]dioxol-5-ylmethyl-N2-pentyl biguanide hydrochloride] — higher, 101.4
- Cl.N=C(N)NC(=Nc1cccc(Br)c1)NCc1ccc2c(c1)OCO2 [Example 41, N1-benzo[1,3]dioxol-5-ylmethyl-N2-(3-bromophenyl)biguanide hydrochloride] — lower, 25.51
- Cc1cccc(N=C(NCc2ccc3c(c2)OCO3)NC(=N)N)c1.Cl [Example 42, N1-benzo[1,3]dioxol-5-ylmethyl-N2-(3-methylphenyl)biguanide hydrochloride] — higher, 75.45
- Cl.N=C(N)NC(=NCc1ccc(F)cc1)NCc1ccc2c(c1)OCO2 [Example 43, N1-benzo[1,3]dioxol-5-ylmethyl-N2-(4-fluorobenzyl)biguanide hydrochloride] — higher, 82.02
- Cl.N=C(N)NC(=NCc1ccc(F)c(F)c1)NCc1ccc2c(c1)OCO2 [Example 44, N1-benzo[1,3]dioxol-5-ylmethyl-N2-(3,4-difluorobenzyl)biguanide hydrochloride] — higher, 78.42

same assay, conditions: 500 μM compound, 24 hours, HepG2 cells; content of triglyceride formed; lower value = stronger inhibition

Point of comparison: `Cl.N=C(N)NC(=NCc1ccc(Br)cc1)NCc1ccc2c(c1)OCO2` [Example 36, N1-benzo[1,3]dioxol-5-ylmethyl-N2-(4-bromobenzyl)biguanide hydrochloride], “Triglyceride (500 μM) aver.” value 24.04. Against it:
- COc1ccc(CN=C(NCc2ccc3c(c2)OCO3)NC(=N)N)cc1.Cl [Example 37, N1-benzo[1,3]dioxol-5-ylmethyl-N2-(4-methoxybenzyl)biguanide hydrochloride] — higher, 58.60
- Cl.N=C(N)NC(=NC1CC1)NCc1ccc2c(c1)OCO2 [Example 38, N1-benzo[1,3]dioxol-5-ylmethyl-N2-cyclopropyl biguanide hydrochloride] — higher, 61.43
- CCCCN=C(NCc1ccc2c(c1)OCO2)NC(=N)N.Cl [Example 39, N1-benzo[1,3]dioxol-5-ylmethyl-N2-butyl biguanide hydrochloride] — higher, 64.23
- CCCCCN=C(NCc1ccc2c(c1)OCO2)NC(=N)N.Cl [Example 40, N1-benzo[1,3]dioxol-5-ylmethyl-N2-pentyl biguanide hydrochloride] — higher, 50.00
- Cl.N=C(N)NC(=Nc1cccc(Br)c1)NCc1ccc2c(c1)OCO2 [Example 41, N1-benzo[1,3]dioxol-5-ylmethyl-N2-(3-bromophenyl)biguanide hydrochloride] — lower, 19.79
- Cc1cccc(N=C(NCc2ccc3c(c2)OCO3)NC(=N)N)c1.Cl [Example 42, N1-benzo[1,3]dioxol-5-ylmethyl-N2-(3-methylphenyl)biguanide hydrochloride] — higher, 36.78
- Cl.N=C(N)NC(=NCc1ccc(F)cc1)NCc1ccc2c(c1)OCO2 [Example 43, N1-benzo[1,3]dioxol-5-ylmethyl-N2-(4-fluorobenzyl)biguanide hydrochloride] — higher, 63.67
- Cl.N=C(N)NC(=NCc1ccc(F)c(F)c1)NCc1ccc2c(c1)OCO2 [Example 44, N1-benzo[1,3]dioxol-5-ylmethyl-N2-(3,4-difluorobenzyl)biguanide hydrochloride] — higher, 56.79
